Laboratory results published in patent US7186703B2, “Derivatives of branched-chain lipophilic molecules and uses thereof” (D-Pharm Ltd., priority 2000, dated 2007).
Read-outs that look alike come from different tables or passages of the source.

How the values were obtained:
[1] = test system: Normal bone marrow (BM) cells; experiment: MTT cytotoxicity, normal bone marrow cells; assay type: cell-based, mouse; conditions: five days, read-out: EC50 (50% reduction in cell viability)
Protocol: (§1) The cytotoxic activity of various phospho-derivatives of branched-chain fatty acids (DP-BFAs) was assayed in vitro in cell cultures that include normal and malignant cell types. The following cell systems were used: • Primary fibroblasts (human) • Normal bone marrow (BM) cells (mouse) • Primary bronchial epithelial cells (human, from Clonetics, cat. no. CC-2541) • Caco-2—colon cancer cell line (human, ATTC, HTB-37) • C6 glioma cell line (rat, ATCC, CRL-2199) • Neuro2a—neuroblastoma cell line (mouse, ATCC, CCL-131) • SKBR-3—breast cancer cell line (human, ATTC, HTB-30) • HL60—myeloid leukemia cell line (human, ATCC, CCL-240) • U937—myeloid leukemia cell line (human)
(§2) Cells were seeded in a microtiter plate in MEM containing 2 mM L-glutamine, 100 units/ml penicillin, 100 ug/ml streptomycin and 10% FCS at 37° C. The cultured cells were incubated, during their linear growth phase in the absence (control group) or presence of various DP-BFAs as indicated. The final concentrations of the tested DP-BFAs ranged from 1.5 to 200 microMolars. At the end of the incubation period, which was five days for the bone marrow cells and three days for all the other cell lines, the cytotoxic effect of the added P-BFA on the cells was estimated by using the colorimetric MTT assay. The MTT assay (Mosmann (1983) J. Immunol Methods 65: 55–63) measures mitochondrial reductase activity and serves for quantitative assessment of cellular viability. Drug concentration that causes 50% reduction in cell viability in comparison to the control group, is defined as EC50. The EC50 values of the tested DP-BFA compounds were calculated from dose response curves established for each of the different assayed cell lines.
(§3) Each EC50 value is an average of EC50 values derived from 1–5 independent experiments.

[2] = test system: HL60 myeloid leukemia cell line; experiment: MTT cytotoxicity, HL60; assay type: cell-based, human; conditions: HL60, three days, read-out: EC50 (50% reduction in cell viability)
Protocol: as §1, §2, §3

[3] = test system: U937 myeloid leukemia cell line; experiment: MTT cytotoxicity, U937; assay type: cell-based, human; conditions: U937, three days, read-out: EC50 (50% reduction in cell viability)
Protocol: as §1, §2, §3

[4] = test system: Primary bronchial epithelial cells; experiment: MTT cytotoxicity, normal primary epithelial cells; assay type: cell-based, human; conditions: Normal primary epithel, three days, read-out: EC50 (50% reduction in cell viability)
Protocol: as §1, §2, §3

[5] = test system: Chinese hamster ovary (CHO) AA8 cell line; experiment: LDH release toxicity assay in cultured CHO AA8 cells; assay type: cell-based; conditions: 1 hour incubation, read-out: LC50 (the source's name)
Protocol: Various DP-BFA molecules were screened in cultured Chinese hamster ovary (CHO) AA8 cell line in order to establish their toxicity. LC50 values, i.e. the concentrations causing death in 50% of cell population, were calculated from dose response curves. LC50 values of phospho-BFAs were compared to those of the corresponding branched fatty acids (=carbo-BFAs).
Lactate dehydrogenase (LDH) release was used as an assay for the integrity of the cells membrane and, thus, for estimation of toxicity. Cells (2×10^5/ml) were seeded (150 μl/well) in 96 well plates, in RPMI-1640 medium containing 10% FCS. After two days, tested DP-BFA compounds or the control compound myristic acid were added to the plates in declining concentrations ranging from 500 to 1 μg/ml. Cells were harvested after one hour. […] Other controls included, two blank wells and five wells containing cells with no additional drugs. Following centrifugation (1500 rpm, 5 min), 75 μl of the supernatant was transferred to a new plate with 45 μl of an LDH assay mix (Tox-7 kit, Sigma). After 10–20 minutes at room temperature, absorbance was measured using an Elisa Reader 490 nm.
Each experiment was performed in triplicate.

[6] = test system: SKBR-3 breast cancer cell line; experiment: MTT cytotoxicity, SKBR-3; assay type: cell-based, human; conditions: three days, read-out: EC50 (50% reduction in cell viability)
Protocol: as §1, §2, §3

[7] = test system: blood brain barrier (BBB); experiment: BBB permeabilization in rats, Evans blue extravasation into brain; assay type: in vivo, Sprague-Dawley rats; conditions: for MEC (minimal effective concentration): concentration giving 3 μg EB/g brain
Source text: Permeabilization of the BBB by DP-BFA was investigated in rat model system by monitoring accumulation in the brain of two markers: a) Evans blue dye (EB), which rapidly binds in vivo with albumin (NW 70 kD) and is an indicator for paracellular transport; and b) Fluorescein sodium salt (F—Na), MW 376 D, which is transported via the cellular space, and enables monitoring transcellular transport. Upon BBB disruption the Evans blue-albumin complex irreversibly accumulates in the intercellular space of the brain. The much smaller tracer fluorescein may be transported intracellularly to occupy both inter and intracellular space in the brain.
Blood brain barrier permeabilization in Sprague-Dawley rats was induced by brief exposure to DP-BFA. The animals were anesthetized with Rampun-Imalgen and DP-BFA test compounds were administered via the external carotid artery retrograde to the brain (Smith, Q. R. Methods of study. In: Physiology and Pharmacology of the Blood-Brain Barrier. Ed. Bradbury M. W. B. Spinger-Verlag. Berlin-Heidelberg-NY; 1992: 24–52). The pterygo-palathina artery was ligated to avoid escape of infused solutions towards the external head vasculature. DP-BFA solutions were infused over a period of 30 seconds or half an hour, using a Harvard Apparatus Syringe Pump. Blood flow through carotid communis artery was interrupted only at the time of infusion.
All tested DP-BFA molecules were prepared from stock solutions in either water or ethanol by diluting 200–1000 fold into solution of isosmotic mannitol (5%) in Tromethamine buffer (Sigma) or PBS (pH 7.4)
The markers, Evans blue (EB, 25 mg/ml) and fluorescein (F—Na, 12.5 mg/ml), in 1 ml solution, were injected intravenously immediately following administration of the tested DP-BFA, or after a specific time interval if reversibility of action was investigated. Supportive i.v. infusion of F—Na (12.5 mg/ml–100 μl/min) was performed for 8 minutes. Brains were washed with saline solution (60 ml) 10 min after the intracarotid “flash”. Brain ipsilateral and contralateral hemispheres and tumors, where applicable, were homogenized separately with 50% trichloroacetic acid (TCA). The markers concentrations in the cortex and in tumors, where, applicable, were determined spectrofluorometrically (Uyama, O. et al., (1988) J. Cereb. Blood Flow Metab. 8, 282–284: Abraham et al., (1996) Neurosci. Lett. 208, 85–88). The markers content was calculated as μg marker per one-gram brain tissue. Standard error and Student's test for statistical significance were used.
The experiment was carried out on male Sprague-Dawley rats weighing 250–320 g. The procedure described above in Example 17 was followed.
The effect of the tested compounds on the BBB opening was evaluated by two parameters:
a) efficacy—The degree of BBB opening estimated in terms of accumulation of Evans Blue albumin (μg EB/g brain tissue); and
b) potency—measured in terms of EC50 and minimal effective concentration (MEC) values. EC50 is the concentration of a tested compound producing 50% of the maximal effect of Evans Blue extravasation.
The effect of various DP-BFAs on BBB permeability was tested in the model system of rat brains, as described above in Example 17. Efficacy, namely the level of the BBB opening was expressed as the amount of Evans blue accumulated in the brain (μg EB/g brain). Potency of the tested molecules was estimated by their calculated EC50 and minimal effective concentration (MEC) values.

[8] = test system: Neuro2a neuroblastoma cell line; experiment: MTT cytotoxicity, Neuro2a; assay type: cell-based, mouse; conditions: three days, read-out: EC50 (50% reduction in cell viability)
Protocol: as §1, §2, §3

[9] = test system: blood brain barrier (BBB); experiment: BBB permeability to EB-albumin and Fluorescein in normal rat brains; assay type: in vivo; conditions: compounds at EC50 (Mannitol 25%); for % EB/g brain: control 0.04 ± 0.01; for Brain fluorescein uptake (% of serum F-Na level): control 0.3 ± 0.08; for Ratio F-Na/EB (mean of individual ratios): control 9.5 ± 1.6
Source text: The effect of various DP-BFAs on BBB permeabilization to molecules of different sizes was examined in vivo in the model system of normal rat brains.
The transport of two markers was followed: a) Evans blue bound to albumin (MW 70 kD) as an indicator for paracellular transport; and b) Fluorescein sodium salt (MW 376 D) that represents small size molecules.
The Evans blue dye (EB) and Fluorescein sodium salt (F—Na) were infused into the artery carotis externa over 30 seconds according to the protocol described above in Example 17. The test compounds were used at their EC50 concentrations. Control animals were treated with vehicle solution.
Evans blue extravasation is expressed as the percentage of the total amount of EB accumulated per one gram of brain tissue. The transport of fluorescein into the brain, which is dependent on the serum concentration of this molecule, is presented as percentage of the F—Na level in the serum.

[10] = test system: Caco-2 colon cancer cell line; experiment: MTT cytotoxicity, Caco-2; assay type: cell-based, human; conditions: Caco-2, three days, read-out: EC50 (50% reduction in cell viability)
Protocol: as §1, §2, §3

[11] = Octanol/saline solubility and partition coefficient, shake-flask technique
Protocol: The lipophilicity values of various derivatives of branched fatty acids were estimated by comparing the solubility of these compounds in organic versus aqueous solutions. Octanol and physiological saline were used, respectively, as the organic and aqueous solutions. The partition coefficient (Pc) value, i.e. the octanol/saline distribution was measured by the shake-flask technique.

[12] = assay type: in vivo; conditions: rats, sodium salt
Protocol: DP-BFA molecules were evaluated for safety and toxicity. Increasing doses of the tested compounds were administered intra-arterially (i.a.) into rats following the protocol described above in Example 17. Animal viability was monitored for 24 hours to evaluate lethal concentrations (LC). LC is defined as the minimal concentration that caused death.
Safety index is defined as the ratio between the lethal dose (LC) and the minimal effective concentration (MEC), wherein MEC corresponds to a calculated concentration of the tested compound that elicits accumulation of three times the amount of Evans blue accumulated in control animals treated with vehicle only, i.e. total accumulation of 3 μg EB. The higher the LC/MEC ratio is, the higher the safety index.

[13] = Table 6, rat brains, Evans blue extravasation, read-out: EQ50 (the source's name)

| Molecule | EC50 [3] | CC50 [5] | EC50 [6] | MEC (minimal effective concentration) ([7]; Table 6) | EC50 [7, 13] | EC50 [8] | % EB/g brain [9] | Brain fluorescein uptake (% of serum F-Na level) [9] | Ratio F-Na/EB (mean of individual ratios) [9] | EC50 [10] | further results |
| --- | --- | --- | --- | --- | --- | --- | --- | --- | --- | --- | --- |
| 4-Octadecanyl phosphocholine [3,14-PC] | 4 µM | – | – | – | – | – | – | – | – | – | EC50 [1]: 160 µM; EC50 [2]: 7 µM; EC50 [4]: 72 µM |
| CCCCCCCC(CCCCCCC)OP(=O)(O)O [7,7-PO4Na2, 8-Pentadecanyl Disodium Phosphate] | – | 320 µM | – | – | – | – | – | – | – | – | – |
| CCCCCCCCCCCCCCCCCCC(CCC)C(=O)OCCOCCOP(=O)([O-])OCC[N+](C)(C)C (centres unmarked) [3,18-DEG-PC, 2-(2′-Propyleicosanoyloxy)ethoxyethylphosphocholine] | – | – | – | – | – | – | – | – | – | – | EC50 ([1]; Mus musculus, Bone marrow cell, 120 h): 80 µM; EC50 ([2]; Homo sapiens, HL-60, 72 h): 13 µM; EC50 ([3]; Homo sapiens, U-937, 72 h): 6 µM; EC50 ([4]; Homo sapiens, Primary bronchial epithelial cell, 72 h): 60 µM |
| CCCCCCCCCCCCC(CCC)OP(=O)([O-])[O-].[Na+].[Na+] (centres unmarked) [3,12-PO4Na2, 4-Hexadecanyl Disodium Phosphate] | 90 µM | 320 µM | > 200 µM | 3.3 ± 0.5 µM | 55 ± 1 µM | 105 µM | 2.9 ± 0.6% | 8.2 ± 0.9 % of the F—Na level in the ser | 5.9 ± 1.0 | > 200 µM | μg EB/g brain (at EC50) ([7]; Table 6, at EC50 (Mannitol at 25%), listed as 3,12-PO4-Na2): 20 ± 3 μg EB/g brain; μg EB/g brain (at EC50) ([7]; Table 6, at EC50 (Mannitol at 25%), listed as 3,12-PO4—Na2): 20 μg EB/g brain |
| CCCCCCCC(CCCCCCC)C(=O)[O-].[Na+] [7,7-Na, reference compound] | – | 65 µM | – | – | – | – | – | – | – | – | LogPc (octanol-saline partition coefficient) ([11]; octanol/physiological saline, sodium salts): 1.33; Water mg/ml (solubility in aqueous solution) ([11]; physiological saline as aqueous solution, sodium salts): >25 mg/mL; Octanol mg/ml (solubility in octanol) ([11]; sodium salts of the branched fatty acids and their PO4 derivatives): >50 mg/mL; μg EB/g brain (at EC50) ([7]; Table 5, at EC50): 4.2 ± 0.6 μg EB/g brain; MEC (minimal effective concentration) ([7]; Table 5): 132 ± 19; EC50 ([7]; Table 5, rat brain, intracarotid infusion, read-out: EC50 (Evans Blue extravasation)): 184 ± 21 µM; MEC ([7]; Table 8, sodium salt, in µM): 132 ± 19; LC (minimal concentration that caused death) ([12]; i.a., viability monitored 24 hours): 360 ± 67 µM; Safety LC/MEC [12]: 2.7 |
| CCCCCCCCCCCCC(CCC)C(=O)OCCOP(=O)([O-])[O-].[Na+].[Na+] (centres unmarked) [3,12-MEG-PO4Na2, 2-(2′-Propyltetradecanoyloxy)ethyl Disodium Phosphate] | 75 µM | – | > 200 µM | 11 ± 2 µM | 18 ± 3 µM | 60 µM | 0.8 ± 0.1% | 5.0 ± 0.8 % of the F—Na level in the ser | 8.4 ± 0.9 | > 200 µM | μg EB/g brain (at EC50) ([7]; Table 6, at EC50 (Mannitol at 25%)): 5 ± 1 μg EB/g brain |
